From ChEMBL document CHEMBL5291721, “A preclinical secondary pharmacology resource illuminates target-adverse drug reaction associations of marketed drugs” (Nat Commun, 2023)

Tests used:
Adenosine receptor A3 = target: T1, Adenosine receptor A3 (Homo sapiens, UniProt P0DMS8)
T1 sequence (P0DMS8 whole entry): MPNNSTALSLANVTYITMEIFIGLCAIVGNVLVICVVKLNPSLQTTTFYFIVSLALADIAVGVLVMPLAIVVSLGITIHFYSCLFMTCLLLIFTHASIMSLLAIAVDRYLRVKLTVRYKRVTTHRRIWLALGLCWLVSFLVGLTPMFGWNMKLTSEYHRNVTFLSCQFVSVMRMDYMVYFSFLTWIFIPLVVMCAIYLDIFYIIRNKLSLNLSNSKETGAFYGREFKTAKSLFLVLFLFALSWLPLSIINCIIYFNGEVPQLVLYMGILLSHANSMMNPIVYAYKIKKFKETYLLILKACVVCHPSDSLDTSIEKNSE

Adenosine receptor A1 = target: T2, Adenosine receptor A1 (Homo sapiens, UniProt P30542)
T2 sequence (P30542 whole entry): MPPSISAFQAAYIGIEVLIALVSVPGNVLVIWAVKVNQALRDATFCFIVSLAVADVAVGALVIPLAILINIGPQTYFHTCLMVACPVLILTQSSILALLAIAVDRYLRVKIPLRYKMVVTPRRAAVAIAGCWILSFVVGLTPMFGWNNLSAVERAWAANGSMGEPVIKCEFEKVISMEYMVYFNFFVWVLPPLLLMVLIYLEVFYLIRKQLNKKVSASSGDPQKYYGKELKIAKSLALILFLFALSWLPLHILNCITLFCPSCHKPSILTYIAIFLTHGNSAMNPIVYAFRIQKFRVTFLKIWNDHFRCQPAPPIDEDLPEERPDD

Melanocortin receptor 4 = Melanocortin receptor 4 (Homo sapiens, UniProt P32245)
Sequence of Melanocortin receptor 4 (P32245 whole entry): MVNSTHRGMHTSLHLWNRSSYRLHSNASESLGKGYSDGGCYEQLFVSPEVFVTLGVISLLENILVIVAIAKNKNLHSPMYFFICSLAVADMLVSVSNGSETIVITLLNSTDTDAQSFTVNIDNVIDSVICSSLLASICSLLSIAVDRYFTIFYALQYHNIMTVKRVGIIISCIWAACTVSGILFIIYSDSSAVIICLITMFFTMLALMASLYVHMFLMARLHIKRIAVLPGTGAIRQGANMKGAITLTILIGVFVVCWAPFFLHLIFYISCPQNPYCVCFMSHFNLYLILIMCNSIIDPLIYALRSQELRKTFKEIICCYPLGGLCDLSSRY

[1] = target: Gamma-aminobutyric acid receptor subunit alpha-1 (Rattus norvegicus, UniProt P62813); assay type: functional
Sequence of Gamma-aminobutyric acid receptor subunit alpha-1 (P62813 whole entry): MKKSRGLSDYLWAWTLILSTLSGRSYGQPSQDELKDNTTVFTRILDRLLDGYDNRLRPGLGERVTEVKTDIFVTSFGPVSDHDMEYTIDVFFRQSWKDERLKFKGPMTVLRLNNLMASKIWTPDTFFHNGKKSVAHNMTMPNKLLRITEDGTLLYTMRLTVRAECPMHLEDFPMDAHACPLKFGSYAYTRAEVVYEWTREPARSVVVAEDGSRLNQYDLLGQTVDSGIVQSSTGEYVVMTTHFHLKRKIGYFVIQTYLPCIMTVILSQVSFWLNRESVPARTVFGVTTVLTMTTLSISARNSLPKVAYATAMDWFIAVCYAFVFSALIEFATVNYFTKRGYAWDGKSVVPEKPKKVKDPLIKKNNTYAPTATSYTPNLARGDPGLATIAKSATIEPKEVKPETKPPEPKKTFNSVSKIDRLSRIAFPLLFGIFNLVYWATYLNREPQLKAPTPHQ

[2] = target: T3, Alpha-1A adrenergic receptor (Homo sapiens, UniProt P35348)
T3 sequence (P35348 whole entry): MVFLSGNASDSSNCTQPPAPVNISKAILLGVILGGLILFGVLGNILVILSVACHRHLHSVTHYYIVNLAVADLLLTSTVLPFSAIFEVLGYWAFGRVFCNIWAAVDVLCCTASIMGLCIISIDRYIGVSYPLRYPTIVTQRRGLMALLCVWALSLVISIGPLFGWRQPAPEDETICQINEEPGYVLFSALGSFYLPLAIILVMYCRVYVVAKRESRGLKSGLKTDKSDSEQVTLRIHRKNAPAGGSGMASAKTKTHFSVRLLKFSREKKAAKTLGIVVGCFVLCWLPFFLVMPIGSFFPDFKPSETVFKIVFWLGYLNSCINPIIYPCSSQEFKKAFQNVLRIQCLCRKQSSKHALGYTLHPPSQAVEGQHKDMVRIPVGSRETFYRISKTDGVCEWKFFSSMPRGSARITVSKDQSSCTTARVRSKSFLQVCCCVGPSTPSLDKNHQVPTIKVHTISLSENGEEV

Mu-type opioid receptor = Mu-type opioid receptor (Homo sapiens, UniProt P35372)
Sequence of Mu-type opioid receptor (P35372 whole entry): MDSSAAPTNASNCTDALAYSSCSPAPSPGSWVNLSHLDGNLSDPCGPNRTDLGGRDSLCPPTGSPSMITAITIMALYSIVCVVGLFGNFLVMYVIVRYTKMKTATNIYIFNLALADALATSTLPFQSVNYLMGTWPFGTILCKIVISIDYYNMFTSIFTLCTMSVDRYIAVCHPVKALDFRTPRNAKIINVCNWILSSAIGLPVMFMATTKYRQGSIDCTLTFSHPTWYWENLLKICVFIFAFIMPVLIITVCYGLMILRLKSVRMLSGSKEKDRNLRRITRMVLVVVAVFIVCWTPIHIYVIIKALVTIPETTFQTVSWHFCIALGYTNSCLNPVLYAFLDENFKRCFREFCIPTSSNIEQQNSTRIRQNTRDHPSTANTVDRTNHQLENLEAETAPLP

[3] = target: Glutamate receptor ionotropic, NMDA 1 (Rattus norvegicus, UniProt P35439)
[4] = target: T4, Cholecystokinin receptor type A (Homo sapiens, UniProt P32238)
T4 sequence (P32238 whole entry): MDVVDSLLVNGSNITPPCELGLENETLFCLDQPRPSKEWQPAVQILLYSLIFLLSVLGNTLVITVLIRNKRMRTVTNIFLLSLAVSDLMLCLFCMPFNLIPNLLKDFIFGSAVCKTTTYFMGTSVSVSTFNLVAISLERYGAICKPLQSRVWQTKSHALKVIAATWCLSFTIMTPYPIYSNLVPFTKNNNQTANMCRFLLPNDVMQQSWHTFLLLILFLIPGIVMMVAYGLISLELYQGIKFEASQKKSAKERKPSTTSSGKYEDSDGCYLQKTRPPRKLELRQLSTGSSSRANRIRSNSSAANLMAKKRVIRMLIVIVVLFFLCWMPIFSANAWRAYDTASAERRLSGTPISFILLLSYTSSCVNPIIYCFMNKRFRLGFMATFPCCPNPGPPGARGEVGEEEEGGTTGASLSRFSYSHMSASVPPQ

[5] = target: Beta-1 adrenergic receptor (Homo sapiens, UniProt P08588); assay type: functional
Sequence of Beta-1 adrenergic receptor (P08588 whole entry): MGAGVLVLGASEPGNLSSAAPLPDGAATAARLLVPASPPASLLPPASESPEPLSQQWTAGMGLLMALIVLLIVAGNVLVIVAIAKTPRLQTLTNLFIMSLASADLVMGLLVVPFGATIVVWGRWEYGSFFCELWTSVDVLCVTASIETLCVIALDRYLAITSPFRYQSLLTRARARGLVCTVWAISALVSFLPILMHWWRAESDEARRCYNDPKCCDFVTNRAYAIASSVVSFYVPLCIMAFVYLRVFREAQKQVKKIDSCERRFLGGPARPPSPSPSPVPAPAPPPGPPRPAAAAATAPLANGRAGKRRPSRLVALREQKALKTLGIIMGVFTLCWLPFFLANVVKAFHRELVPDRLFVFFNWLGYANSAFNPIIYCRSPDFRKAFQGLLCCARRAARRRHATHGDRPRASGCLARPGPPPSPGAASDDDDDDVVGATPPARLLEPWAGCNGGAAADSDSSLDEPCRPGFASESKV

Cannabinoid receptor 1 = Cannabinoid receptor 1 (Homo sapiens, UniProt P21554)
Sequence of Cannabinoid receptor 1 (P21554 whole entry): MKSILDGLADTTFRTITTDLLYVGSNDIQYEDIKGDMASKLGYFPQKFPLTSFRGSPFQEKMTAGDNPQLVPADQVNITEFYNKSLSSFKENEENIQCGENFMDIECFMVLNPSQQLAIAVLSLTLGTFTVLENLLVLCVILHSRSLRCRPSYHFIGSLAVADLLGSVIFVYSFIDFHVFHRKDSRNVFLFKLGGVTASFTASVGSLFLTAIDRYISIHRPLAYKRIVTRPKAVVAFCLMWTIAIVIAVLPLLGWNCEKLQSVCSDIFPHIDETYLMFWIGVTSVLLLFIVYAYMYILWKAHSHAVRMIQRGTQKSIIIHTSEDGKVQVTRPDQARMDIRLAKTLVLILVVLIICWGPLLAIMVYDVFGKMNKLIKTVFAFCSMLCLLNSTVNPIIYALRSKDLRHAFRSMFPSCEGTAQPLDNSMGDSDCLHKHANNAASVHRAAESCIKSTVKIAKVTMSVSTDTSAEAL

Vasopressin V1a receptor = Vasopressin V1a receptor (Homo sapiens, UniProt P37288)
Sequence of Vasopressin V1a receptor (P37288 whole entry): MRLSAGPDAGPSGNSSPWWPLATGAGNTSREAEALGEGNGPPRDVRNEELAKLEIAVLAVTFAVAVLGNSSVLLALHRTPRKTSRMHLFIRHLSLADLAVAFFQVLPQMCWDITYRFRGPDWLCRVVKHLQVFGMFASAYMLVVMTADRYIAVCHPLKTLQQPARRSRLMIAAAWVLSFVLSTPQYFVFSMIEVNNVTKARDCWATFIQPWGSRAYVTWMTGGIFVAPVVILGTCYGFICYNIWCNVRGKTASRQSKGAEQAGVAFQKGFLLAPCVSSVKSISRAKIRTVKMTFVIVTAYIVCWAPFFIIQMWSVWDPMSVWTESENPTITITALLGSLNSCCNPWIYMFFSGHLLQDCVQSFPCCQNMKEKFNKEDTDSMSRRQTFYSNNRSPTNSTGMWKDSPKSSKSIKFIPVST

[6] = target: T3, Alpha-1A adrenergic receptor; assay type: functional, cell-based
Further: assay procedure not described here.

Structure (SMILES) | AC50 (Adenosine receptor A3) [µM] | AC50 (Adenosine receptor A1) [µM] | AC50 (Melanocortin receptor 4) [µM] | AC50 [1] [µM] | AC50 [2] [µM] | AC50 (Mu-type opioid receptor) [µM] | AC50 [3] [µM] | AC50 [4] [µM] | AC50 [5] [µM] | AC50 (Cannabinoid receptor 1) [µM] | AC50 (Vasopressin V1a receptor) [µM] | AC50 [6] [µM]
NCC[C@H](O)C(=O)N[C@@H]1C[C@H](N)[C@@H](O[C@H]2O[C@H](CN)[C@@H](O)[C@H](O)[C@H]2O)[C@H](O)[C@H]1O[C@H]1O[C@H](CO)[C@@H](O)[C@H](N)[C@H]1O [AMIKACIN] | > 10 | > 10 | > 10 | > 10 | > 10 | > 30 | > 10 | > 10 | > 10 | > 10 | – | –
O=C(O)CCCCCCCC(=O)O [AZELAIC ACID] | > 10 | > 10 | > 10 | > 10 | > 30 | > 30 | > 10 | > 10 | > 10 | > 10 | > 10 | –
CC(C[N+](C)(C)C)OC(N)=O (configuration not stated) [BETHANECHOL] | > 10 | > 10 | > 10 | > 10 | > 10 | > 30 | > 10 | > 10 | > 10 | > 10 | > 10 | –
O=C(O)C1=C(CSc2nnnn2CS(=O)(=O)O)CS[C@@H]2[C@H](NC(=O)[C@H](O)c3ccccc3)C(=O)N12 [CEFONICID] | > 30 | > 30 | > 30 | > 30 | > 30 | – | > 30 | > 30 | > 30 | > 30 | > 30 | > 30
Nc1nc(/C(=C/CC(=O)O)C(=O)N[C@@H]2C(=O)N3C(C(=O)O)=CCS[C@H]23)cs1 [CEFTIBUTEN] | > 30 | > 30 | > 30 | > 30 | – | – | > 30 | > 30 | > 30 | > 30 | > 30 | > 30
COc1ccc2c3c1O[C@H]1[C@@H](O)C=C[C@H]4[C@@H](C2)N(C)CC[C@@]341 [CODEINE] | > 30 | > 30 | > 30 | > 10 | > 10 | – | > 10 | > 30 | 0.9 | > 10 | > 30 | > 30
Cc1ccc(S(=O)(=O)NC(=O)NN2CC3CCCC3C2)cc1 (configuration not stated) [GLICLAZIDE] | > 10 | > 10 | > 10 | > 10 | > 30 | > 30 | > 10 | > 10 | > 10 | > 10 | – | –
CC(C)Cn1cnc2c(N)nc3ccccc3c21 [IMIQUIMOD] | > 30 | > 10 | > 10 | > 10 | 5.67 | > 30 | > 10 | > 10 | > 10 | > 10 | – | –
CC(C(=O)O)c1ccc(N2Cc3ccccc3C2=O)cc1 (configuration not stated) [INDOPROFEN] | > 30 | > 30 | – | > 30 | > 30 | > 30 | > 30 | > 30 | > 30 | > 30 | > 30 | > 30
CO[C@@H]1[C@@H](O[C@@H]2O[C@H](C)[C@@H](O[C@H]3C[C@@](C)(O)[C@@H](OC(=O)CC(C)C)[C@H](C)O3)[C@H](N(C)C)[C@H]2O)[C@@H](CC=O)C[C@@H](C)[C@@H](O)/C=C/C=C/C[C@@H](C)OC(=O)C[C@H]1OC(C)=O [JOSAMYCIN] | > 10 | > 10 | > 10 | > 10 | – | > 30 | > 10 | > 10 | > 10 | > 10 | > 10 | –
COC(=O)C1=C(C)NC(C)=C(C(=O)OC(C)(C)CN(C)CCC(c2ccccc2)c2ccccc2)C1c1cccc([N+](=O)[O-])c1 (configuration not stated) [LERCANIDIPINE] | 8.8 | > 30 | > 30 | > 30 | 5.7 | – | > 30 | > 30 | > 30 | 6.6 | > 30 | –
C[C@](N)(Cc1ccc(O)c(O)c1)C(=O)O [METHYLDOPA] | > 30 | > 30 | > 10 | > 10 | 7.1 | > 30 | > 10 | > 10 | > 10 | > 10 | – | –
O=C(NCCN1CCOCC1)c1ccc(Cl)cc1 [MOCLOBEMIDE] | > 10 | > 10 | > 10 | > 10 | > 10 | > 30 | > 10 | > 10 | > 10 | > 10 | – | –
N#Cc1ccc([C@H]2CCc3cncn32)c(F)c1 [OSILODROSTAT] | > 10 | > 10 | > 10 | > 10 | – | > 10 | > 10 | > 10 | > 10 | > 10 | > 10 | –
CN1CCC(=C2c3ccccc3CCc3sccc32)CC1 [PIZOTYLINE] | > 30 | > 30 | > 30 | > 10 | – | > 10 | > 10 | > 30 | > 10 | 1.66 | > 30 | 3.32
COC(=O)[C@H]1[C@H]2C[C@@H]3c4[nH]c5cc(OC)ccc5c4CCN3C[C@H]2C[C@@H](OC(=O)/C=C/c2cc(OC)c(OC)c(OC)c2)[C@@H]1OC [RESCINNAMINE] | > 30 | > 30 | > 10 | > 10 | – | > 10 | > 10 | > 10 | > 10 | > 10 | > 10 | –
C[C@]12CC[C@H]3[C@@H](CCC4=CC(=O)CC[C@@]43C)[C@@H]1CC[C@@H]2O [TESTOSTERONE] | > 10 | > 10 | > 10 | > 10 | > 30 | > 30 | > 10 | > 10 | > 10 | > 10 | – | –
CN1CCN(CC/C=C2/c3ccccc3Sc3ccc(S(=O)(=O)N(C)C)cc32)CC1 [THIOTHIXENE] | > 30 | > 30 | > 30 | > 10 | 0.0244 | > 10 | > 10 | > 30 | > 10 | – | > 10 | 0.31
CN1C(=O)OC(C)(C)C1=O [TRIMETHADIONE] | > 10 | > 10 | > 10 | > 10 | > 10 | > 30 | > 10 | > 10 | > 10 | > 10 | – | –
